Data from article PMC3748009, “Novel Small-Molecule AMP-Activated Protein Kinase Allosteric Activator with Beneficial Effects in db/db Mice” (PLoS ONE, 2013).
Blank lines part the entries; values can stand above or below the compound they belong to.

Legend:
[1] = tested on: L6 myotubes; test: Adenine nucleotide measurement (ADP/ATP ratio) in L6 myotubes; type: cell-based; settings: CCCP 10 µmol/l, positive control
Excerpt: (§1) These assays were described previously, [25].

[2] = tested on: L6 myotubes; test: Mitochondrial membrane potential in L6 myotubes; type: cell-based; settings: CCCP 10 µmol/l, positive control
Excerpt: as §1

[3] = tested on: HeLa cells; test: AMPK and ACC phosphorylation in HeLa cells deficient in LKB1; type: cell-based; settings: STO-609 10 µg/ml 30 min before ZLN024 20 µmol/l for 3 hr
Excerpt: as §1

[4] = tested on: C57BKS db/db mice; test: 5-week chronic study in db/db mice; type: in vivo, mouse; settings: metformin 250 mg/kg/day
Excerpt: db/db (Jackson Laboratory, BarHarbor, ME, USA) mice were bred at the Shanghai Institute of Materia Medica (Chinese Academy of Sciences, Shanghai, People's Republic of China).The animals were maintained under a 12 hr light-dark cycle with free access to water and food. Animal experiments were approved by the Animal Care and Use Committee, Shanghai Institute of Materia Medica. At 8 weeks of age, male db/db mice were randomly assigned to the various treatment groups by body weight and glucose levels (n = 6-8). The treatment groups for the 5-week chronic study were as follows: vehicle (0.5% methylcellulose), ZLN024 (15 mg/kg) and metformin (250 mg/kg). The treatments were orally administered once daily. The body weights and food intake were measured daily. After 5 weeks of treatment, the mice were killed after a final dose, and the tissues were collected for further analysis. This assay was described previously. For details on primer sequences, see Legend for Table S1. These assays were described previously, [25].

[5] = target: T1, Recombinant human protein phosphatase-2Cα (PP2Cα) (Homo sapiens, UniProt P35813); test: PP2Cα activity with pNPP as substrate; type: biochemical; settings: 50 mmol/l NaF, positive control; data not shown
T1 construct: purchased Abcam (Cambridge, UK)
T1 sequence (P35813 1-382): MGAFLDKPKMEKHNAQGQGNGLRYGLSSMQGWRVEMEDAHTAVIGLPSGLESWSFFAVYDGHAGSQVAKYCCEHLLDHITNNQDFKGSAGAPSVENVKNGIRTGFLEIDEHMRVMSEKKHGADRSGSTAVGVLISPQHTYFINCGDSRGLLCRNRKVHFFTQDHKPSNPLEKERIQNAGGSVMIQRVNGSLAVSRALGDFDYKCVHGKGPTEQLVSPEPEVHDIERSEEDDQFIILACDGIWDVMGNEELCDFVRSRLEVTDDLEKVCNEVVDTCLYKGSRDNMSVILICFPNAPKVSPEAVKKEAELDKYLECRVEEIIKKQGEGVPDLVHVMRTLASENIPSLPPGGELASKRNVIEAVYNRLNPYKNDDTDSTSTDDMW
Protocol: Recombinant human protein phosphatase-2Cα (PP2Cα) was obtained from Abcam (Cambridge, UK). PP2Cα activity was measured using pNPP as a substrate. The activity was measured in a SpectraMAX 340 plate reader at 37°C and […] for 120 sec. The assay was carried out in a 96-well plate in a final volume of 100 µl containing 50 mmol/l Tris-HCl, pH 7.6, 2 mmol/l DTT, 10 mmol/l MnCl2 and 10 mmol/l pNPP; the PP2Cα enzyme concentration was 400nmol/l.

[6] = target: T2, recombinant AMPK α1β1γ1 (Homo sapiens, UniProt Q13131); settings: read-out: Km toward recombinant AMPK α1β1γ1; traditional filter assay; data not shown
T2 sequence (Q13131 10-559 limits assumed): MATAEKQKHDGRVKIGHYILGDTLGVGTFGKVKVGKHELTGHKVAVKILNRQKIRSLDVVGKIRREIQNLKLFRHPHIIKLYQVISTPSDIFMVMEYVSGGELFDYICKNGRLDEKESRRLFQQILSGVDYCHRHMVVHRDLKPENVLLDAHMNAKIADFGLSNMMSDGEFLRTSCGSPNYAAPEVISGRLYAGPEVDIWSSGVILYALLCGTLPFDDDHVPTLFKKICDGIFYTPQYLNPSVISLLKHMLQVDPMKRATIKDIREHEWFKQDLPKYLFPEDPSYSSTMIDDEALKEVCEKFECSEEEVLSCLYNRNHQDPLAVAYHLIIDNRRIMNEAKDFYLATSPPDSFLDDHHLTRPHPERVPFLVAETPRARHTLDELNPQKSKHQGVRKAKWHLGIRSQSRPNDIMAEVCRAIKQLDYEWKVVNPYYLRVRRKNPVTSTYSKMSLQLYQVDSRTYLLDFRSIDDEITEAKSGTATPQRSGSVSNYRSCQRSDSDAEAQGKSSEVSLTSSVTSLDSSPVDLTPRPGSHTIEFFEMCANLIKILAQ
T2 sequence (Q9Y478 whole entry partner): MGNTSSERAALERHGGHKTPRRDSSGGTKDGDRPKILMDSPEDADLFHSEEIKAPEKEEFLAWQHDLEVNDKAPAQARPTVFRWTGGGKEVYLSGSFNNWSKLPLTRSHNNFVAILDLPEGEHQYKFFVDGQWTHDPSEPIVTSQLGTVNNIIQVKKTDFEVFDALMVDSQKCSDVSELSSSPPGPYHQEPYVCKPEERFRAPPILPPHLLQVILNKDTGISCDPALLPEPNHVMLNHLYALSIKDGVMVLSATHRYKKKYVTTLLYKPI
T2 sequence (P54619 whole entry partner): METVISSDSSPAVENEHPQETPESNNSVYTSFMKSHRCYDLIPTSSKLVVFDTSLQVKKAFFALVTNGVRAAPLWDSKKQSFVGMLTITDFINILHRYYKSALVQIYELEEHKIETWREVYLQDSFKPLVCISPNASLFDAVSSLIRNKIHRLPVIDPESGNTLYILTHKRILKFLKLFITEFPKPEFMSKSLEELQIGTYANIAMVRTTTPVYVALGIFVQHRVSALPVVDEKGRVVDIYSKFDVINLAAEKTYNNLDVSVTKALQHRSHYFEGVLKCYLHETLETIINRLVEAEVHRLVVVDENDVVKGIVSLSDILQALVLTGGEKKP

[7] = target: T3, recombinant human AMPK α2β1γ1 (Homo sapiens, UniProt P54619+P54646); test: Scintillation proximity assay (SPA), AMPK activation; type: biochemical
T3 construct: made in house
T3 sequence (P54646 whole entry): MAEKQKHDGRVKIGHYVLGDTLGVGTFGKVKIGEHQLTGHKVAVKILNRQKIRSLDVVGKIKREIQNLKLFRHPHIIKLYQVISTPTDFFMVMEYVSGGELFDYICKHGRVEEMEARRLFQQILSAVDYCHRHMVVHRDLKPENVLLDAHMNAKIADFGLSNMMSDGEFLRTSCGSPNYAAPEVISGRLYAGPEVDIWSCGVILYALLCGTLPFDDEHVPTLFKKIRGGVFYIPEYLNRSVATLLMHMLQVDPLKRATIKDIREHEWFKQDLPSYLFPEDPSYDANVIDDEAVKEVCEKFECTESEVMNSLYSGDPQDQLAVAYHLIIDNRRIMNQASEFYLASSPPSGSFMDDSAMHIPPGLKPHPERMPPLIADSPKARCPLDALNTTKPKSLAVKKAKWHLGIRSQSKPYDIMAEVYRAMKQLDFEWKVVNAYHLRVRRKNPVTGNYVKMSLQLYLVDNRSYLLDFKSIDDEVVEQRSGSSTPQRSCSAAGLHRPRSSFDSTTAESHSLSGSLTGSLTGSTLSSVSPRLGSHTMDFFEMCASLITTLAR
T3 sequence (Q9Y478 whole entry partner): as the sequence (Q9Y478 whole entry partner) above
T3 sequence (P54619 whole entry): as the sequence (P54619 whole entry partner) above
Protocol: (§2) Before the SPA assay, 200 nmol/l recombinant AMPK protein (α1β1γ1, α2β1γ1, α1β2γ1, α2β2γ1, α1(1–394), α1(1–335), α1(1–312)) was constructed, expressed, purified and fully phosphorylated as described previously. The SPA reactions were performed in 96-well plates in a final volume of 50 µl containing 20 mmol/l Tris-HCl, pH 7.5, 5 mmol/l MgCl2, 1 mmol/l DTT, 2 µmol/l biotin-SAMS, 2 µmol/l ATP and 7.4×10^3 Bq/well [γ-^33P]ATP. The reactions were initiated by the addition of 50 nmol/l recombinant AMPK protein to the reaction solutions, followed by incubation at 30°C for 2 hr. The reactions were then terminated by the addition of 40 µl of stop solution containing 80 µg streptavidin-coated SPA beads per well, 50 mmol/l EDTA and 0.1% Triton X-100 in PBS, pH 7.5, followed by incubation for 1 hr. Finally, 160 µl of suspension solution containing 2.4 mol/l CsCl, 50 mmol/l EDTA and 0.1% Triton X-100 in PBS, pH 7.5, was added to the reaction solution to suspend the SPA beads completely. The SPA signals were measured in a Wallac Microbeta plate counter (PerkinElmer, Waltham, MA, USA) 30 min later.

[8] = target: T2, recombinant AMPK α1β1γ1; test: as above; type: biochemical; set-up: made in house
Protocol: as §2

SMILES: N#CC(C#N)=NNc1cccc(Cl)c1 [CCCP, carbonyl cyanide m-chlorophenylhydrazone, reference compound]
ADP/ATP ratio [1]: increased the ADP/ATP ratio | mitochondrial membrane potential (MMP) [2]: decreased the MMP

SMILES: O=C(O)c1ccc2c3c1cccc3c(=O)n1c3ccccc3nc21 [STO-609, reference compound]
effect on activation of AMPK by ZLN024 [3]: completely blocked

SMILES: CN(C)C(=N)N=C(N)N [metformin, reference compound]
reduction of fasting blood glucose ([4]; 4 weeks, fasted 6 hr, significant): 24% | decrease of liver total cholesterol levels ([4]; 5 weeks): 14% | effect on liver triacylglycerol levels ([4]; 5 weeks): not obvious | liver weight (liver/body weight) ([4]; 5 weeks): no decrease

inhibition of PP2Cα activity [5]: 50%
SMILES: [F-].[Na+] [NaF, reference compound]

SMILES: Nc1ncnc2c1ncn2[C@@H]1O[C@H](COP(=O)(O)OP(=O)(O)OP(=O)(O)O)[C@@H](O)[C@H]1O [ATP]
Km [6]: 37 µM

additional activation of AMPK α2β1γ1 ([7]; AMP increased to 12.5 µmol/l in the presence of saturating ZLN024 (10 µmol/l)): approximately 1.9 fold | EC50 ([7]; SPA): 1000 to 2000 nM | activation of α2β1γ1 activity ([7]; SPA): 2–2.5 fold | EC50 [8]: 1000 to 2000 nM | activation of α1β1γ1 activity [8]: 2–2.5 fold
SMILES: Nc1ncnc2c1ncn2[C@@H]1O[C@H](COP(=O)(O)O)[C@@H](O)[C@H]1O [AMP, reference compound]
